Converted amounts (≈) assume the structure as drawn.
Legend:
Assay type in all cases: functional
Staphylococcus aureus [1] = experiment: Antimicrobial activity against Staphylococcus aureus DSM 1104 incubated at 37 degC for 24 hrs by cup diffusion method
Bacillus subtilis [2] = experiment: Antimicrobial activity against Bacillus subtilis ATCC 6633 incubated at 37 degC for 24 hrs by cup diffusion method
Pseudomonas aeruginosa [3] = experiment: Antimicrobial activity against Pseudomonas aeruginosa ATCC 10145 incubated at 37 degC for 24 hrs by cup diffusion method
Escherichia coli [4] = experiment: Antimicrobial activity against Escherichia coli ATCC 11775 incubated at 37 degC for 24 hrs by cup diffusion method
Candida albicans [5] = experiment: Antimicrobial activity against Candida albicans DSM 70014 incubated at 37 degC for 48 hrs by cup diffusion method
Staphylococcus aureus [6] = experiment: Antimicrobial activity against Staphylococcus aureus DSM 1104 incubated for 24 hrs by two-fold serial broth dilution method; details: DSM 1104, 24 h
Staphylococcus aureus [7] = experiment: Antimicrobial activity against Staphylococcus aureus DSM 1104 incubated for 24 hrs followed by transfer of colonies to Muller-Hinton agar plate and measured after 18 hrs by two-fold serial broth dilution method
Bacillus subtilis [8] = experiment: Antimicrobial activity against Bacillus subtilis ATCC 6633 incubated for 24 hrs by two-fold serial broth dilution method; details: ATCC 6633, 24 h
Bacillus subtilis [9] = experiment: Antimicrobial activity against Bacillus subtilis ATCC 6633 incubated for 24 hrs followed by transfer of colonies to Muller-Hinton agar plate and measured after 18 hrs by two-fold serial broth dilution method
Pseudomonas aeruginosa [10] = experiment: Antimicrobial activity against Pseudomonas aeruginosa ATCC 10145 incubated for 24 hrs by two-fold serial broth dilution method; details: ATCC 10145, 24 h
Pseudomonas aeruginosa [11] = experiment: Antimicrobial activity against Pseudomonas aeruginosa ATCC 10145 incubated for 24 hrs followed by transfer of colonies to Muller-Hinton agar plate and measured after 18 hrs by two-fold serial broth dilution method
Escherichia coli [12] = experiment: Antimicrobial activity against Escherichia coli ATCC 11775 incubated for 24 hrs by two-fold serial broth dilution method; details: ATCC 11775, 24 h
Escherichia coli [13] = experiment: Antimicrobial activity against Escherichia coli ATCC 11775 incubated for 24 hrs followed by transfer of colonies to Muller-Hinton agar plate and measured after 18 hrs by two-fold serial broth dilution method
Candida albicans [14] = experiment: Antimicrobial activity against Candida albicans DSM 70014 incubated for 48 hrs by two-fold serial broth dilution method; details: DSM 70014, 48 h
Candida albicans [15] = experiment: Antimicrobial activity against Candida albicans DSM 70014 incubated for 48 hrs followed by transfer of colonies to Muller-Hinton agar plate and measured after 18 hrs by two-fold serial broth dilution method
NCI-H226 = experiment: Growth inhibition of human NCI-H226 cells at 10 uM incubated for 48 hrs by sulforhodamine B assay; details: NCI-H226, 48 h, read-out: GI
SNB-75 = experiment: Growth inhibition of human SNB75 cells at 10 uM incubated for 48 hrs by sulforhodamine B assay; details: SNB-75, 48 h, read-out: GI
MDA-MB-231 = experiment: Growth inhibition of human MDA-MB-231 cells at 10 uM incubated for 48 hrs by sulforhodamine B assay; details: MDA-MB-231, 48 h, read-out: GI
[16] = Growth inhibition of human EKVX cells at 10 uM incubated for 48 hrs by sulforhodamine B assay; details: read-out: GI
HCT-116 = experiment: Growth inhibition of human HCT116 cells at 10 uM incubated for 48 hrs by sulforhodamine B assay; details: HCT-116, 48 h, read-out: GI
HCT-15 = experiment: Growth inhibition of human HCT15 cells at 10 uM incubated for 48 hrs by sulforhodamine B assay; details: HCT-15, 48 h, read-out: GI
CAKI-1 = experiment: Growth inhibition of human Caki1 cells at 10 uM incubated for 48 hrs by sulforhodamine B assay; details: CAKI-1, 48 h, read-out: GI
A549 = experiment: Growth inhibition of human A549 cells at 10 uM incubated for 48 hrs by sulforhodamine B assay; details: A549, 48 h, read-out: GI
NCI-H23 = experiment: Growth inhibition of human NCI-H23 cells at 10 uM incubated for 48 hrs by sulforhodamine B assay; details: NCI-H23, 48 h, read-out: GI
HT-29 = experiment: Growth inhibition of human HT-29 cells at 10 uM incubated for 48 hrs by sulforhodamine B assay; details: HT-29, 48 h, read-out: GI
[17] = Growth inhibition of human RXF393 cells at 10 uM incubated for 48 hrs by sulforhodamine B assay; details: RXF 393, 48 h, read-out: GI
[18] = Growth inhibition of human HOP92 cells at 10 uM incubated for 48 hrs by sulforhodamine B assay; details: HOP-92, 48 h, read-out: GI
[19] = Growth inhibition of human NCI-ADR-RES cells at 10 uM incubated for 48 hrs by sulforhodamine B assay; details: read-out: GI
SF-268 = experiment: Growth inhibition of human SF268 cells at 10 uM incubated for 48 hrs by sulforhodamine B assay; details: SF-268, 48 h, read-out: GI
PC-3 = experiment: Growth inhibition of human PC3 cells at 10 uM incubated for 48 hrs by sulforhodamine B assay; details: PC-3, 48 h, read-out: GI
NCI-H522 = experiment: Growth inhibition of human NCI-H522 cells at 10 uM incubated for 48 hrs by sulforhodamine B assay; details: NCI-H522, 48 h, read-out: GI
UO-31 = experiment: Growth inhibition of human UO31 cells at 10 uM incubated for 48 hrs by sulforhodamine B assay; details: UO-31, 48 h, read-out: GI
OVCAR-3 = experiment: Growth inhibition of human OVCAR3 cells at 10 uM incubated for 48 hrs by sulforhodamine B assay; details: OVCAR-3, 48 h, read-out: GI
A498 = experiment: Growth inhibition of human A498 cells at 10 uM incubated for 48 hrs by sulforhodamine B assay; details: A498, 48 h, read-out: GI

SMILES	MIC (Staphylococcus aureus [6])	MIC (Bacillus subtilis [8])	MIC (Pseudomonas aeruginosa [10])	MIC (Escherichia coli [12])	MIC (Candida albicans [14])	inhibition zone (IZ) (Staphylococcus aureus [1])	inhibition zone (IZ) (Bacillus subtilis [2])	inhibition zone (IZ) (Pseudomonas aeruginosa [3])	inhibition zone (IZ) (Escherichia coli [4])	inhibition zone (IZ) (Candida albicans [5])	MBC (Staphylococcus aureus [7])	MBC (Bacillus subtilis [9])	MBC (Pseudomonas aeruginosa [11])	MBC (Escherichia coli [13])	MFC (Candida albicans [15])	inhibition of growth at 10 µM (NCI-H226)	inhibition of growth at 10 µM (SNB-75)	also measured
Nc1cc(-c2ccc(Cl)cc2)nn1-c1nc2ccccc2nc1Cc1ccccc1	100 µg/mL (≈ 243 µM)	100 µg/mL (≈ 243 µM)	50 µg/mL (≈ 121 µM)	100 µg/mL (≈ 243 µM)	50 µg/mL (≈ 121 µM)	14 mm	15 mm	12 mm	16 mm	16 mm	100 µg/mL (≈ 243 µM)	100 µg/mL (≈ 243 µM)	50 µg/mL (≈ 121 µM)	100 µg/mL (≈ 243 µM)	50 µg/mL (≈ 121 µM)	15.7%	15.6%	inhibition of growth at 10 µM (MDA-MB-231): 24.9%; inhibition of growth at 10 µM [16]: 21.4%; inhibition of growth at 10 µM (HCT-116): 27.2%; inhibition of growth at 10 µM (HCT-15): 25.6%; inhibition of growth at 10 µM (CAKI-1): 19.3%; inhibition of growth at 10 µM (A549): 22%; inhibition of growth at 10 µM (NCI-H23): 18.5%; inhibition of growth at 10 µM (HT-29): 30.3%; inhibition of growth at 10 µM [17]: 21.3%
Cc1nnc2c(Cc3ccccc3)nc3ccccc3n12	50 µg/mL (≈ 182 µM)	50 µg/mL (≈ 182 µM)	100 µg/mL (≈ 365 µM)	50 µg/mL (≈ 182 µM)	100 µg/mL (≈ 365 µM)	12 mm	13 mm	11 mm	12 mm	14 mm	100 µg/mL (≈ 365 µM)	100 µg/mL (≈ 365 µM)	100 µg/mL (≈ 365 µM)	50 µg/mL (≈ 182 µM)	200 µg/mL (≈ 729 µM)	15.1%	21.9%	inhibition of growth at 10 µM [18]: 17.6%; inhibition of growth at 10 µM [19]: 12.6%
Brc1ccc(C2=NN=C3C(Cc4ccccc4)=Nc4ccccc4N3C2)cc1	50 µg/mL (≈ 116 µM)	50 µg/mL (≈ 116 µM)	100 µg/mL (≈ 233 µM)	50 µg/mL (≈ 116 µM)	50 µg/mL (≈ 116 µM)	12 mm	12 mm	12 mm	14 mm	14 mm	50 µg/mL (≈ 116 µM)	50 µg/mL (≈ 116 µM)	100 µg/mL (≈ 233 µM)	50 µg/mL (≈ 116 µM)	50 µg/mL (≈ 116 µM)			
c1ccc(Cc2nc3ccccc3n3cnnc23)cc1	50 µg/mL (≈ 192 µM)	50 µg/mL (≈ 192 µM)	50 µg/mL (≈ 192 µM)	25 µg/mL (≈ 96 µM)	100 µg/mL (≈ 384 µM)	17 mm	12 mm	14 mm	12 mm	17 mm	100 µg/mL (≈ 384 µM)	50 µg/mL (≈ 192 µM)	100 µg/mL (≈ 384 µM)	25 µg/mL (≈ 96 µM)	200 µg/mL (≈ 768 µM)	15.5%	23.5%	inhibition of growth at 10 µM (A498): 38.7%; inhibition of growth at 10 µM (PC-3): 14.2%; inhibition of growth at 10 µM (UO-31): 22.7%

These reach a lower MIC (Candida albicans [14]). Values come first.

MIC (Staphylococcus aureus [6])	MIC (Bacillus subtilis [8])	MIC (Pseudomonas aeruginosa [10])	MIC (Escherichia coli [12])	MIC (Candida albicans [14])	SMILES	inhibition zone (IZ) (Staphylococcus aureus [1])	inhibition zone (IZ) (Bacillus subtilis [2])	inhibition zone (IZ) (Pseudomonas aeruginosa [3])	inhibition zone (IZ) (Escherichia coli [4])	inhibition zone (IZ) (Candida albicans [5])	MBC (Staphylococcus aureus [7])	MBC (Bacillus subtilis [9])	MBC (Pseudomonas aeruginosa [11])	MBC (Escherichia coli [13])	MFC (Candida albicans [15])	inhibition of growth at 10 µM (NCI-H226)	inhibition of growth at 10 µM (SNB-75)	also measured
50 µg/mL (≈ 144 µM)	100 µg/mL (≈ 289 µM)	100 µg/mL (≈ 289 µM)	100 µg/mL (≈ 289 µM)	25 µg/mL (≈ 72.2 µM)	CCOC(=O)Cc1nnc2c(Cc3ccccc3)nc3ccccc3n12	14 mm	14 mm	14 mm	15 mm	12 mm	100 µg/mL (≈ 289 µM)	100 µg/mL (≈ 289 µM)	100 µg/mL (≈ 289 µM)	100 µg/mL (≈ 289 µM)	25 µg/mL (≈ 72.2 µM)			
100 µg/mL (≈ 263 µM)	100 µg/mL (≈ 263 µM)	100 µg/mL (≈ 263 µM)	25 µg/mL (≈ 65.7 µM)	25 µg/mL (≈ 65.7 µM)	O=C(O)c1ccccc1-c1nnc2c(Cc3ccccc3)nc3ccccc3n12	14 mm	16 mm	12 mm	15 mm	14 mm	200 µg/mL (≈ 526 µM)	100 µg/mL (≈ 263 µM)	100 µg/mL (≈ 263 µM)	50 µg/mL (≈ 131 µM)	50 µg/mL (≈ 131 µM)		24.4%	inhibition of growth at 10 µM (SF-268): 14.1%; inhibition of growth at 10 µM (PC-3): 43.9%; inhibition of growth at 10 µM (NCI-H522): 14.6%; inhibition of growth at 10 µM (UO-31): 18%; inhibition of growth at 10 µM (OVCAR-3): 20.2%
				5 µg/mL (≈ 14.5 µM)	Clc1ccccc1C(c1ccccc1)(c1ccccc1)n1ccnc1 [CLOTRIMAZOLE]													

Source: ChEMBL document CHEMBL3621157, “Design, synthesis and biological evaluation of novel 1,2,4-triazolo and 1,2,4-triazino[4,3-a]quinoxalines as potential anticancer and antimicrobial agents” (2015)
